Results reported in article PMC5522529, “Mechanisms of Paradoxical Activation of AMPK by the Kinase Inhibitors SU6656 and Sorafenib” (Cell Chemical Biology, 2017).

Experiments:
Type in all cases: cell-based
[1] = target: T1, AMPK-α1 AA mutant (Homo sapiens, UniProt Q13131, K40A/K42A); assay: AMPK activity of FLAG-tagged AMPK-α1 K40A/K42A (AA) mutant expressed in HEK293 cells; details: AA mutant FLAG-α1; same concentrations, 1 hr
T1 construct: Plasmid encoding full-length human AMPK-α1; expressed in transfected cells; host or cells: HEK293
T1 sequence (Q13131 whole entry K40A/K42A): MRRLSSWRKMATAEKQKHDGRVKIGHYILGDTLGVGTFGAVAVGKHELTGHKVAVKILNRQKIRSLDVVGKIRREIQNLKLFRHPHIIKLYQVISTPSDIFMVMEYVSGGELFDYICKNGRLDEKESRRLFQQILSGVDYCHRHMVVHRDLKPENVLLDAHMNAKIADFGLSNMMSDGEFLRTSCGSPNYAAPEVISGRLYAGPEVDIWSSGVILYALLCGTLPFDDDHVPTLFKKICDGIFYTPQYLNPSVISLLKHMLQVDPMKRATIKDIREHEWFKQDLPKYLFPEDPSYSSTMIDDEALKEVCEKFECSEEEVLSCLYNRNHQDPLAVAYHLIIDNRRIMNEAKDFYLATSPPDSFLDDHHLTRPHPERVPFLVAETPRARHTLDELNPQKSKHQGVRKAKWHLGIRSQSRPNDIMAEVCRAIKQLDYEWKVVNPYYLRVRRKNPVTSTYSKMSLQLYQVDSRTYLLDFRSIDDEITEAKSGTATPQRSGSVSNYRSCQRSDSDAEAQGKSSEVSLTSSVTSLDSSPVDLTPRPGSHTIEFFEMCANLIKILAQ
T1 sequence (P54619 whole entry partner): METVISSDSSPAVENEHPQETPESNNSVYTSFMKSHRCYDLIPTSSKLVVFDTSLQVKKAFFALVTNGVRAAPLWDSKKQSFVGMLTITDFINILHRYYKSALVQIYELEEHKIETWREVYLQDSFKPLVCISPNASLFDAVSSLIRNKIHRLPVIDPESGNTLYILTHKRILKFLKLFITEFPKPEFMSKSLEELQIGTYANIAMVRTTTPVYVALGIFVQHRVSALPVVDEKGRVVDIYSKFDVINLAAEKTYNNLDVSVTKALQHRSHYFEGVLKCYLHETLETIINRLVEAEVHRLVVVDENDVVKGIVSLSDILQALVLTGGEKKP
Text: (§1) (B) Western blotting of the same preparations as in (A). […] (D) Allosteric activation of WT and mutant α1β1γ1 complexes by MT 63-78, curve fitting as for (C). […] (E) Allosteric activation of WT and mutant α1β1γ1 complexes by AMP. Data were fitted to the equation for activation/inactivation by AMP ([Gowans et al., 2013]). […] (F) Activation of WT and AA mutant by various AMPK activators in HEK293 cells. […] FLAG-tagged complexes were isolated by immunoprecipitation and AMPK activity determined (mean ± SEM, n = 2).
(§2) We next expressed the FLAG-tagged WT or AA mutant of AMPK-α1 by transient transfection in HEK293 cells, treated with various agents, and measured AMPK activity in anti-FLAG immunoprecipitates. In Figure 4F, the results are expressed as absolute activities and are accompanied by blots showing Thr172 phosphorylation.

[2] = target: T2, AMPK-α1 (WT) (Homo sapiens, UniProt Q13131); assay: AMPK activity of FLAG-tagged AMPK-α1 (WT) expressed in HEK293 cells; details: 1 hr; for AMPK activity and Thr172 phosphorylation: WT FLAG-α1, A769662 300 μM, berberine 300 μM, phenformin 10 mM, troglitazone 100 μM, oligomycin 1 μM, SU6656 100 μM
T2 construct: we expressed FLAG-tagged full-length AMPK-α1 either as the WT or the AT mutant; expressed in transfected cells; host or cells: HEK293
T2 sequence (Q13131 whole entry): as the sequence (Q13131 whole entry K40A/K42A) above, with A40K, A42K counted along it
T2 sequence (P54619 whole entry partner): as the sequence (P54619 whole entry partner) above
Text: as §1, §2
The α1-KD was precipitated using anti-FLAG and endogenous AMPK complexes using anti-α1 antibody, and activity determined. […] (B) Western blots (n = 2) using the indicated antibodies; samples from experiment in (A). (C) DNAs encoding FLAG-tagged AMPK-α1 (WT or AT mutant) were expressed by transient transfection in HEK293 cells, the cells treated with increasing concentrations of SU6656 for 1 hr, AMPK complexes precipitated with anti-FLAG, and activity measured.

[3] = target: T3, α1 kinase domain (α1-KD, residues 1–312) (Homo sapiens, UniProt Q13131); assay: Activity of FLAG-tagged α1 kinase domain expressed in HEK293 cells; details: 1 hr
T3 construct: amplifying residues 1-312 with an N-terminal FLAG-tag; expressed in transfected cells; host or cells: HEK293 (transient transfection, pcDNA5 FRT)
T3 sequence (Q13131 1-312): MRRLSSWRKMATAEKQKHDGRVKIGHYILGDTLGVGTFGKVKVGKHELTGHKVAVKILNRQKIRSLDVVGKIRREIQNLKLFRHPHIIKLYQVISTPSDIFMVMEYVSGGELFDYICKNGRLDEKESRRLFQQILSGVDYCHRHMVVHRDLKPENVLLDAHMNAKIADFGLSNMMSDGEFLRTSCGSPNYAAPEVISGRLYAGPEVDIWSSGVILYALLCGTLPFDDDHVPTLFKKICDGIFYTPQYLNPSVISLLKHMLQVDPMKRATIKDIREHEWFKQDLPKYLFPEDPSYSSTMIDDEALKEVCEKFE
Text: (§3) We next expressed an FLAG-tagged α1 kinase domain (α1-KD, residues 1–312) by transient transfection in HEK293 cells, treated the cells with various AMPK activators, and then assayed both the expressed α1-KD (precipitated using anti-FLAG) and endogenous full-length α1 complexes (precipitated using anti-α1 antibodies recognizing an epitope outside the α1-KD). […] This was also observed with A23187, as expected since this ionophore increases intracellular Ca^2+ and activates the alternate upstream kinase CaMKK2.
(§4) The α1-KD was precipitated using anti-FLAG and endogenous AMPK complexes using anti-α1 antibody, and activity determined. Results (mean ± SD, n = 2) are expressed relative to activities in DMSO controls. (B) Western blots (n = 2) using the indicated antibodies; samples from experiment in (A). (C) DNAs encoding FLAG-tagged AMPK-α1 (WT or AT mutant) were expressed by transient transfection in HEK293 cells, the cells treated with increasing concentrations of SU6656 for 1 hr, AMPK complexes precipitated with anti-FLAG, and activity measured. Results (mean ± SD, n = 3) are expressed relative to the DMSO control. […] Results (mean ± SD, n = 3) are expressed relative to the DMSO control. **p < 0.01, ***p < 0.001, ****p < 0.0001, ^†††p < 0.001; ns, not significant.
A plasmid encoding the AMPK-α2 kinase domain (α2-KD) was made by amplifying residues 1-310 with 5' BamH1 and 3' Xho1 sites, the resulting PCR product was cloned into pGEX6P2. Point mutations were generated using the Quikchange II site-directed mutagenesis kit (Stratagene) and confirmed by DNA sequencing.

[4] = target: human AMPK-α2 (WT) (Homo sapiens, UniProt P54646); assay: AMPK activity of FLAG-tagged WT AMPK-α2 expressed in HEK293 cells; details: SU6656 100 μM, phenformin 10 mM, A23187 10 μM, 1 hr
human AMPK-α2 (WT), sequence (P54646 whole entry, the tested form may be a part): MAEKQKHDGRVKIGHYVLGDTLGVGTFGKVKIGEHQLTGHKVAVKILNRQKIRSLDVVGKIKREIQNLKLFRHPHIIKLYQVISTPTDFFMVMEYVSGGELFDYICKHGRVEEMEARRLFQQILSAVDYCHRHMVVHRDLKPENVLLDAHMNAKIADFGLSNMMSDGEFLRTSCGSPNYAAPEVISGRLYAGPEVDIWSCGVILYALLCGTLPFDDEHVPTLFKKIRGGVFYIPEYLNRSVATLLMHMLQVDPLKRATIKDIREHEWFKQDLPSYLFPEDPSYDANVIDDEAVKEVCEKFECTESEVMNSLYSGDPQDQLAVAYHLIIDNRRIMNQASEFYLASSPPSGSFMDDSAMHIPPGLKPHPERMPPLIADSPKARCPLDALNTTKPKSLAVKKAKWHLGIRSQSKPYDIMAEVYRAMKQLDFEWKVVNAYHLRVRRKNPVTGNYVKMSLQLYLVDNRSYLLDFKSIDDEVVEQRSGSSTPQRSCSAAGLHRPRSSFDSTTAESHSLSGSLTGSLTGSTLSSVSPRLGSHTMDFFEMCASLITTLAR
human AMPK-α2 (WT), sequence (P54619 whole entry partner, the tested form may be a part): as the sequence (P54619 whole entry partner) above
Protocol: (§5) Top: AMPK activity (mean ± SEM, n = 4); bottom: western blots showing phosphorylation of Thr172 on AMPK, and of ERK1/2, in cells treated with DMSO (control), SU6656 (100 μM), or PP2 (100 nM) (n = 2). (B) As (A), but in SYF cells. (C) HeLa cells were transfected with DNAs encoding GFP alone, or GFP fused to WT, Y261F/Y365F (FF), or Y36F/Y261F/Y365F (FFF) mutants of LKB1; cells were treated with increasing concentrations of SU6656 for 1 hr and AMPK activity determined (mean ± SEM, n = 4). See also Figure S1. (D) HEK293 cells were transfected with DNAs encoding FLAG-tagged AMPK-α2 with or without a Y436F mutation. Cells were incubated with DMSO (control), 100 μM SU6656, 10 mM phenformin, or 10 μM A23187 for 1 hr; AMPK complexes were immunoprecipitated using anti-FLAG antibody and assayed. The top panels show kinase activities (mean ± SD, n = 3); the bottom panels show blots from the same experiment (n = 2). In all panels, asterisks indicate significant differences from DMSO controls; in (D), there were no significant differences between the WT and Y463F mutant. **p < 0.01, ****p < 0.0001.

[5] = target: T4, endogenous full-length α1 complexes (Homo sapiens, UniProt Q13131); assay: Activity of endogenous full-length α1 complexes in HEK293 cells; details: 1 hr
T4 construct: endogenous in cells
T4 sequence (Q13131 whole entry): as the sequence (Q13131 whole entry K40A/K42A) above, with A40K, A42K counted along it
T4 sequence (P54619 whole entry partner): as the sequence (P54619 whole entry partner) above
Text: as §3, §4

[6] = target: T5, human AMPK-α2 Y436F mutant (Homo sapiens, UniProt P54646, Y436F); assay: AMPK activity of FLAG-tagged Y436F AMPK-α2 expressed in HEK293 cells; details: SU6656 100 μM, phenformin 10 mM, A23187 10 μM, 1 hr
T5 construct: expressed in transfected cells; host or cells: HEK293 (transient transfection)
T5 sequence (P54646 whole entry Y436F): as the sequence (P54646 whole entry, the tested form may be a part) above, with Y436F counted along it
T5 sequence (P54619 whole entry partner): as the sequence (P54619 whole entry partner) above
Protocol: as §5

[7] = target: T6, AMPK-α1 AT mutant (Homo sapiens, UniProt Q13131, A167T); assay: AMPK activity of FLAG-tagged AMPK-α1 AT mutant expressed in HEK293 cells; details: AT mutant FLAG-α1, 1 hr
T6 construct: we expressed FLAG-tagged full-length AMPK-α1 either as the WT or the AT mutant; expressed in transfected cells; host or cells: HEK293 (transient transfection)
T6 sequence (Q13131 whole entry A167T): as the sequence (Q13131 whole entry K40A/K42A) above, with A40K, A42K, A167T counted along it
T6 sequence (P54619 whole entry partner): as the sequence (P54619 whole entry partner) above
Text: as §4
To confirm that it acted by binding at the catalytic site, we expressed FLAG-tagged full-length AMPK-α1 either as the WT or the AT mutant.

SMILES | effect of AA mutation on AMPK activation [1] | AMPK activity and Thr172 phosphorylation [2] | kinase activity / Thr172 phosphorylation [3] | AMPK activity in anti-FLAG immunoprecipitates [4] | kinase activity / Thr172 phosphorylation [5] | AMPK activation response with Y436F mutation [6] | AMPK activity ([2]; WT FLAG-α1 (comparison with AT mutant)) | AMPK activity [7]
CC[C@H]1/C=C/C=C/C[C@@H](C)[C@H](O)[C@@](C)(O)C(=O)[C@@H](C)[C@H](O)[C@@H](C)C(=O)[C@@H](C)[C@H](O)[C@@H](C)/C=C/C(=O)O[C@@H]2[C@H](C)[C@H](CC1)O[C@]1(CC[C@H](C)[C@H](C[C@@H](C)O)O1)[C@H]2C [oligomycin] | abolished | activated AMPK and caused Thr172 phosphorylation | – | – | – | – | – | –
[H]/N=C(/N)N/C(=N/[H])NCCc1ccccc1 [phenformin] | abolished | activated AMPK and caused Thr172 phosphorylation | failed to activate or cause Thr172 phosphorylation | all activated AMPK | doing this with the endogenous complexes | unaffected by the Y436F mutation | activated equally well | activated equally well
Cc1c(C)c2c(c(C)c1O)CCC(C)(COc1ccc(CC3SC(=O)NC3=O)cc1)O2 (centres unmarked) [troglitazone] | abolished | activated AMPK and caused Thr172 phosphorylation | failed to activate or cause Thr172 phosphorylation | – | doing this with the endogenous complexes | – | – | –
